In general, chromatographic logP refers to lipophilicity estimated from chromatographic retention.

These results are taken from patent US6221862A, “Microbicide 1,4,2-dioxazine derivatives” (Bayer Aktiengesellschaft, priority 1997, dated 2001).

In series [1] the test system is Phytophthora infestans. It counts as in vivo. Particulars: tomato, protective, 100 g/ha, 3 days after inoculation; 0% = control, 100% = no infestation.
The test system of series [2] is Leptosphaeria nodorum. In words: Leptosphaeria nodorum test (wheat)/protective. It is filed as in vivo. Particulars: protective, 250 g/ha, 10 days after inoculation, 0% = control, 100% = no infestation. The procedure: Leptosphaeria nodorum test (wheat)/protective
(§1) Solvent: 25 parts by weight of N,N-dimethylacetamide
(§2) Emulsifier: 0.6 part by weight of alkylaryl polyglycol ether
To test for appropriate formulation of the active compound, 1 part by weight of active compound is mixed with the stated amounts of solvent and emulsifier, and the concentrate is diluted with water to the desired concentration.
To test for protective activity, young plants are sprayed with the formulation of the active compound in the stated application amount. After the spray coating has dried on, the plants are sprayed with a spore suspension of Leptosphaeria nodorum. The plants remain in an incubation cabin at 20° C. and 100% relative atmospheric humidity for 48 hours.
The plants are placed in a greenhouse at a temperature of about 15° C. and a relative atmospheric humidity of 80%.
(§3) Evaluation is carried out 10 days after the inoculation. In this evaluation, 0% means a degree of action which corresponds to that of the control, while a degree of action of 100% means that no infestation is observed.

For series [3], the system named is Puccinia recondite. The series can be described thus: Puccinia test (wheat)/curative. It counts as in vivo. Particulars: curative, 250 g/ha, 10 days after inoculation, 0% = control, 100% = no infestation. The procedure:
Puccinia test (wheat)/curative
Solvent: 10 parts by weight of N,N-dimethylacetamide
as §2
(§4) To prepare an appropriate formulation of the active compound, 1 part by weight of active compound is mixed with the stated amounts of solvent and emulsifier, and the concentrate is diluted with water to the desired concentration.
To test for curative activity, young plants are sprayed with a conidia suspension of Puccinia recondite The plants remain in an incubation cabin at 20° C. and 100% relative atmospheric humidity for 48 hours. The plants are then sprayed with the active compound formulation in the stated application amount.
The plants are placed in a greenhouse at a temperature of about 20° C. and a relative atmospheric humidity of about 80% in order to promote the development of rust pustules.
as §3

The test system of series [4] is Puccinia. In words: Puccinia test (wheat)/protective. It is filed as in vivo. Particulars: protective, 250 g/ha, 10 days after inoculation, 0% = control, 100% = no infestation. The procedure:
Puccinia test (wheat)/protective
as §1, §2, §4
To test for protective activity, young plants are sprayed with the formulation of the active compound in the stated application amount. After the spray coating has dried on, the plants are sprayed with the conidia suspension of Puccinia. The plants remain in an incubation cabin at 20° C. and 100% relative atmospheric humidity for 48 hours.
The plants are then placed in a greenhouse at a temperature of about 20° C. and a relative atmospheric humidity of 80% in order to promote the development of rust pustules.
as §3

The test system of series [5] is Pyricularia oryzae. It counts as in vivo. The settings on record: rice, protective, 750 g/ha, 4 days after inoculation; 0% = control, 100% = no infestation.
Series [6] deals with Plasmopara viticola. In words: Plasmopara test (vine)/protective. The settings on record: protective, 100 g/ha, 6 days after inoculation, 0% = control, 100% = no infestation. It counts as in vivo. The procedure:
Plasmopara test (vine)/protective
Solvent: 47 parts by weight of acetone
Emulsifier: 3 parts by weight of alkylaryl polyglycol ether
as §4
To test for protective activity, young plants are sprayed with the formulation of the active compound in the stated application amount. After the spray coating has dried on, the plants are inoculated with an aqueous spore suspension of Plasmopara viticola and then remain in an incubation cabin at about 20° C. and 100% relative atmospheric humidity for 1 day. The plants are then placed in a greenhouse at about 21° C. and about 90% relative atmospheric humidity for 5 days. The plants are then moistened and placed in an incubation cabin for 1 day.
Evaluation is carried out 6 days after the inoculation. In this evaluation, 0% means a degree of action which corresponds to that of the control, while a degree of action of 100% means that no infestation is observed.

Series [7] has as its system Leptosphaeria nodorum. In words: Leptosphaeria nodorum test (wheat)/curative. It is filed as in vivo. Particulars: curative, 250 g/ha, 10 days after inoculation, 0% = control, 100% = no infestation. The procedure: Leptosphaeria nodorum test (wheat)/curative
Solvent: 10 parts by weight of N-methyl-pyrrolidone
as §2, §4
To test for curative activity, young plants are sprayed with a conidia suspension of Leptosphaeria nodorum. The plants remain in an incubation cabin at 20° C. and 100% relative atmospheric humidity for 48 hours and are then sprayed with the formulation of the active compound in the stated application amount.
The plants are placed in a greenhouse at a temperature of about 15° C. and a relative atmospheric humidity of about 80%.
as §3

The nature of series [8]: logP determination by HPLC (EEC Directive 79/831 Annex V. A8). It is filed as physicochemical. The settings on record: acetonitrile/0.1% aqueous phosphoric acid, gradient method, acetonitrile/0.1% strength aqueous phosphoric acid. The procedure:
The logP values were determined in accordance with EEC Directive 79/831 Annex V. A8 by HPLC (gradient method, acetonitrile/0.1% strength aqueous phosphoric acid)

Regarding `CON=C(C1=NOCCO1)c1ccccc1CSC(=Nc1ccc(OC)nc1)C1CC1` [Example 1], the degree of action in series [1] was not below 90%; in series [2], not below 90%; in series [3] it was not below 100%; in series [4], not below 90%; in series [5] it was not below 70%; in series [6], not below 90%. Also, the degree of action in series [7] is on record as not below 95%. The same molecule showed a chromatographic logP in series [8] of 3.04.
In turn, `CON=C(C1=NOCCO1)c1ccccc1CSC(=Nc1ccc(OC)cc1)C1CC1` [Example 2] gave a degree of action in series [5] not below 70%. In series [8], this molecule yielded a chromatographic logP of 3.16.
In series [8], `CON=C(C1=NOCCO1)c1ccccc1CSC(=Nc1ccccc1C(F)(F)F)C1CC1` [Example 3] displayed a chromatographic logP of 4.16.
